# From patent US20040186179A1, “Pharmaceutical composition” (priority 2000, published 2004)
# Like-named read-outs stand apart in the source and are kept apart here. Marks after values point to notes of the source that are not given here.
# Experiments:
# [1] = system: patients with knee or hip primary osteoarthritis; assay: Four week placebo-controlled trial, most pain over the previous 24 hours on a 100 mm VAS; assay type: in vivo, human
# Protocol: (§1) A four week multicenter randomized double-blind double-dummy placebo-controlled parallel group trial (the study) of four dosing regimens of 5-methyl-2-(2′-chloro-6′-fluoroanilino)phenylacetic acid in patients with knee or hip primary osteoarthritis is performed, using diclofenac as a comparator. Patients are male and female, from 18 to 75 years of age, have a clinical and radiological diagnosis of knee or hip osteoarthritis as defined by the American College of Rheumatology criteria, and have a pain intensity of at least 40 mm (Visual Analog Scale) in the affected joint prior to screening for inclusion in the study. 584 patients are randomized to receive either 50, 100, or 200 mg 5-methyl-2-(2′-chloro-6′-fluoroanilino)phenylacetic acid or 75 mg diclofenac administered orally twice a day, or 400 mg 5-methyl-2-(2′-chloro-6′-fluoroanilino)phenylacetic acid administered orally once a day, or placebo. Drug and placebo are administered in capsules. The comparator, diclofenac, is an extended release tablet that is over-encapsulated to match the placebo. The treatment duration is for 28 days.
# (§2) Pharmacokinetics are performed on 52 of the patients who receive 5-methyl-2-(2′-chloro-6′-fluoroanilino)phenylacetic acid. Blood samples are taken at 0, 0.5, 1, 2, 3, 4 and 6 hours following administration of 5-methyl-2-(2′-chloro-6′-fluoroanilino)phenylacetic acid. Plasma concentrations of 5-methyl-2-(2′-chloro-6′-fluoroanilino)phenylacetic acid are measured by an LC/MS assay with a limit of quantitation of 10 ng/ml. Cmax and tmax AUC (0-6) are determined for day 1 and Cmax^ss and tmax^ss AUCτ^ss, Cmin^ss, Cav^ss, peak-trough fluctuation (PTF) and Cl/F at steady state are determined on day 28. The primary efficacy parameter is the most pain experienced over the previous 24 hours on a 100 mm VAS.
# [2] = Pharmacokinetics in osteoarthritis patients, plasma concentrations by LC/MS; assay type: in vivo, human; settings: for Tmax / Cmax / AUC(0-t) / AUC: plasma; for AUC(0-t): read-out: AUC0-6
# Protocol: as §1, §2
# [3] = both sexes, human, po, 50 mg, 50 mg bid oral, day 0
# [4] = both sexes, human, po, 50 mg, 50 mg bid oral, day 28
# [5] = both sexes, human, po, 100 mg, 100 mg bid oral, day 0
# [6] = both sexes, human, po, 100 mg, 100 mg bid oral, day 28
# [7] = both sexes, human, po, 200 mg, 200 mg bid oral, day 0
# [8] = both sexes, human, po, 200 mg, 200 mg bid oral, day 28
# [9] = both sexes, human, po, 400 mg, 400 mg qd oral, day 0
# [10] = both sexes, human, po, 400 mg, 400 mg qd oral, day 28
smiles,measurement,setting,value
"O=C(O)Cc1ccccc1Nc1c(Cl)cccc1Cl [diclofenac, reference compound]","VAS pain, change from baseline","[1]; 75 mg twice a day, extended release tablet, day 7, 100 mm VAS",−27.9 mm
same,"VAS pain, change from baseline","[1]; 75 mg twice a day, extended release tablet, day 14, 100 mm VAS",−30.4 (23.0)* mm
same,"VAS pain, change from baseline","[1]; 75 mg twice a day, extended release tablet, day 28, 100 mm VAS",−31.8 mm
Cc1ccc(Nc2c(F)cccc2Cl)c(CC(=O)O)c1 [5-methyl-2-(2′-chloro-6′-fluoroanilino)phenylacetic acid],CLss/F,"[2]; 50 mg bid oral, day 28",15.0 ± 4.7 L/h
same,CLss/F,"[2]; 100 mg bid oral, day 28",13.3 ± 3.3 L/h
same,CLss/F,"[2]; 200 mg bid oral, day 28",15.0 ± 3.5 L/h
same,CLss/F,"[2]; 400 mg qd oral, day 28",17.4 ± 6.1 L/h
same,Dose dependence of AUC and Cmax,"[2]; 50, 100, 200 mg twice daily and 400 mg once daily, day 28",dose proportional increase
same,Tmax,"[2]; both sexes, human, oral, all dose groups, read-out: tmax, typical",2 to 3 h
same,Cmax,[2]; [3],914 ± 340 ng/mL
same,AUC(0-t),[2]; [3],2680 ± 960 ng·h/mL
same,Tmax,"[2]; both sexes, human, po, 50 mg, 50 mg bid oral, day 0, read-out: tmax",2 h
same,Cmax,[2]; [4],1010 ± 590 ng/mL
same,AUC(0-t),[2]; [4],2810 ± 1210 ng·h/mL
same,Tmax,"[2]; both sexes, human, po, 50 mg, 50 mg bid oral, day 28, read-out: tmax",2 h
same,Cmax,[2]; [5],1790 ± 600 ng/mL
same,AUC(0-t),[2]; [5],5220 ± 1810 ng·h/mL
same,Tmax,"[2]; both sexes, human, po, 100 mg, 100 mg bid oral, day 0, read-out: tmax",2.5 h
same,Cmax,[2]; [6],1860 ± 630 ng/mL
same,AUC(0-t),[2]; [6],6010 ± 1890 ng·h/mL
same,Tmax,"[2]; both sexes, human, po, 100 mg, 100 mg bid oral, day 28, read-out: tmax",2 h
same,Cmax,[2]; [7],4210 ± 2160 ng/mL
same,AUC(0-t),[2]; [7],11700 ± 3570 ng·h/mL
same,Tmax,"[2]; both sexes, human, po, 200 mg, 200 mg bid oral, day 0, read-out: tmax",3 h
same,Cmax,[2]; [8],4380 ± 3100 ng/mL
same,AUC(0-t),[2]; [8],11100 ± 3020 ng·h/mL
same,Tmax,"[2]; both sexes, human, po, 200 mg, 200 mg bid oral, day 28, read-out: tmax",2 h
same,Cmax,[2]; [9],5540 ± 1800 ng/mL
same,AUC(0-t),[2]; [9],17200 ± 5280 ng·h/mL
same,Tmax,"[2]; both sexes, human, po, 400 mg, 400 mg qd oral, day 0, read-out: tmax",3 h
same,Cmax,[2]; [10],4790 ± 2640 ng/mL
same,AUC(0-t),[2]; [10],15300 ± 5590 ng·h/mL
same,Tmax,"[2]; both sexes, human, po, 400 mg, 400 mg qd oral, day 28, read-out: tmax",2 h
same,AUC,"[2]; both sexes, human, 50 mg bid oral, day 28",3660 ± 1290 ng·h/mL
same,AUC,"[2]; both sexes, human, 100 mg bid oral, day 28",8100 ± 2730 ng·h/mL
same,AUC,"[2]; both sexes, human, 200 mg bid oral, day 28",14000 ± 3220 ng·h/mL
same,AUC,"[2]; both sexes, human, 400 mg qd oral, day 28",25800 ± 9200 ng·h/mL
same,half-life,"[2]; both sexes, human, blood plasma, oral administration",180 to 360 min
same,"VAS pain, change from baseline","[1]; 50 mg bid, day 7, 100 mm VAS",−19.5 (19.1)* mm
same,"VAS pain, change from baseline","[1]; 50 mg bid, day 14, 100 mm VAS",−22.6 (20.9)* mm
same,"VAS pain, change from baseline","[1]; 50 mg bid, day 28, 100 mm VAS",−28.6 mm
same,"VAS pain, change from baseline","[1]; 100 mg bid, day 7, 100 mm VAS",−19.2 (21.6)* mm
same,"VAS pain, change from baseline","[1]; 100 mg bid, day 14, 100 mm VAS",−21.2 (22.6)* mm
same,"VAS pain, change from baseline","[1]; 100 mg bid, day 28, 100 mm VAS",−26.3 mm
same,"VAS pain, change from baseline","[1]; 200 mg bid, day 7, 100 mm VAS",−22.0 (20.8)* mm
same,"VAS pain, change from baseline","[1]; 200 mg bid, day 14, 100 mm VAS",−24.1 (22.8)* mm
same,"VAS pain, change from baseline","[1]; 200 mg bid, day 28, 100 mm VAS",−29.6 mm
same,Pain relief of 400 mg once daily compared with 200 mg twice daily,[1]; 400 mg once daily,the same or better pain relief as 200 mg twice daily
same,Mean VAS scores compared with the other dose groups,"[1]; 400 mg once daily, day 28, throughout the measurement period",best mean scores
same,"VAS pain, change from baseline","[1]; 400 mg qd, day 7, 100 mm VAS","−26.0 (22.4)*a, b mm"
same,"VAS pain, change from baseline","[1]; 400 mg qd, day 14, 100 mm VAS",−27.5 (23.8)* mm
same,"VAS pain, change from baseline","[1]; 400 mg qd, day 28, 100 mm VAS",−33.2 mm
same,Duration of effective anti-inflammatory treatment after a single oral dose,"[1]; about 200 to about 1200 mg per day, immediate-release formulation, humans",24 h
